Data as given in ChEMBL document CHEMBL3351875, “Synthesis of Deuterated Benzopyran Derivatives as Selective COX-2 Inhibitors with Improved Pharmacokinetic Properties” (ACS Med Chem Lett, 2014).

Experiments:
[1] = Cmax in Sprague-Dawley rat at 25 mg/kg, po measured during 1 to 24 hrs by LC-MS method; type: ADME, organism-based; set-up: dose 25 mg/kg, route oral; conditions: in vivo
[2] = Apparent oral clearance in Sprague-Dawley rat at 5 mg/kg, iv measured during 1 to 24 hrs by LC-MS method; type: ADME, organism-based; set-up: dose 5 mg/kg, route oral; conditions: in vivo
[3] = Tmax in Sprague-Dawley rat at 25 mg/kg, po measured during 1 to 24 hrs by LC-MS method; type: ADME, organism-based; set-up: dose 25 mg/kg, route oral; conditions: in vivo
[4] = (§1) AUC (0 to infinity) in Sprague-Dawley rat at 5 mg/kg, iv measured during 1 to 24 hrs by LC-MS method; type: ADME, organism-based, Plasma; set-up: time infinity, dose 5 mg/kg, route intravenous; conditions: Sprague-Dawley, plasma
[5] = Cmax in Sprague-Dawley rat at 5 mg/kg, iv measured during 1 to 24 hrs by LC-MS method; type: ADME, organism-based; set-up: dose 5 mg/kg, route intravenous; conditions: in vivo
[6] = molecular target: Prostaglandin G/H synthase 1 (Homo sapiens, UniProt P23219); test: Inhibition of human recombinant COX1 pre-incubated for 15 mins before fluorometric substrate addition by fluorescence based assay
Chain of Prostaglandin G/H synthase 1 (P23219 whole entry): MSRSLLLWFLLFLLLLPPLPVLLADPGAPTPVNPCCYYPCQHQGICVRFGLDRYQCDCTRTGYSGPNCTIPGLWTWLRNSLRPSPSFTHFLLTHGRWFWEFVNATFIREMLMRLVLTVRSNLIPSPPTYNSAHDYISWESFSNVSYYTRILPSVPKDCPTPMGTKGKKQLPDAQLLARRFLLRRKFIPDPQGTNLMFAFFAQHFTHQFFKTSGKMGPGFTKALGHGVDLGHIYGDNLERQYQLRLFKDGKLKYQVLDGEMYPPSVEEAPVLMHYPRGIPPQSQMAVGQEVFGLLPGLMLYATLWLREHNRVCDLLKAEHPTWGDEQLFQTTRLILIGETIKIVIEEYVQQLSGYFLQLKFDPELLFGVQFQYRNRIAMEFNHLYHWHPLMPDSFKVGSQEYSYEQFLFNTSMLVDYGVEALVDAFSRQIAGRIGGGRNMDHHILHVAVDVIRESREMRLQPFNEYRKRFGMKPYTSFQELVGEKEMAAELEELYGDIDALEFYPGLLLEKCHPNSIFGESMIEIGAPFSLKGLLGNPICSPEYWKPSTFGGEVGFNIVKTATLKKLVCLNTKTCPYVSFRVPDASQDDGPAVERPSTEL

[7] = tested on: Rattus norvegicus; test: Half life in Sprague-Dawley rat at 5 mg/kg, iv measured during 1 to 24 hrs by LC-MS method; type: ADME, organism-based; set-up: dose 5 mg/kg, route intravenous; conditions: in vivo
[8] = Apparent oral clearance in Sprague-Dawley rat at 25 mg/kg, po measured during 1 to 24 hrs by LC-MS method; type: ADME, organism-based; set-up: dose 25 mg/kg, route oral; conditions: in vivo
[9] = Volume of distribution in Sprague-Dawley rat at 5 mg/kg, iv measured during 1 to 24 hrs by LC-MS method; type: ADME, organism-based; set-up: dose 5 mg/kg, route intravenous; conditions: in vivo
[10] = Half life in Sprague-Dawley rat at 25 mg/kg, po measured during 1 to 24 hrs by LC-MS method; type: ADME, organism-based; set-up: dose 25 mg/kg, route oral; conditions: in vivo
[11] = AUC (0 to infinity) in Sprague-Dawley rat at 25 mg/kg, po measured during 1 to 24 hrs by LC-MS method; type: ADME, organism-based; set-up: time infinity, dose 25 mg/kg, route oral; conditions: plasma
[12] = tested on: Rattus norvegicus; test: Volume of distribution in Sprague-Dawley rat at 25 mg/kg, po measured during 1 to 24 hrs by LC-MS method; type: ADME, organism-based; set-up: dose 25 mg/kg, route oral; conditions: in vivo
[13] = Oral bioavailability in Sprague-Dawley rat at 25 mg/kg measured during 1 to 24 hrs by LC-MS method; type: ADME, organism-based; conditions: in vivo
[14] = tested on: Rattus norvegicus; test: AUC (0 to infinity) in Sprague-Dawley rat at 1 mg/kg, iv measured during 1 to 24 hrs by LC-MS method; type: ADME, organism-based, Plasma; set-up: time infinity, dose 1 mg/kg, route intravenous; conditions: in vivo
[15] = tested on: Rattus norvegicus; test: Antiinflammatory activity in orally dosed Sprague-Dawley rat model of carrageenan-induced air pouch inflammation assessed as reduction in PGE2 level by ELISA method; type: functional, organism-based
[16] = Oral bioavailability in Sprague-Dawley rat at 2.5 mg/kg measured during 1 to 24 hrs by LC-MS method; type: ADME, organism-based; conditions: Sprague-Dawley, in vivo
[17] = Cmax in Sprague-Dawley rat at 1 mg/kg, iv measured during 1 to 24 hrs by LC-MS method; type: ADME, organism-based; set-up: dose 1 mg/kg, route intravenous; conditions: in vivo
[18] = tested on: Rattus norvegicus; test: Half life in Sprague-Dawley rat at 2.5 mg/kg, po measured during 1 to 24 hrs by LC-MS method; type: ADME, organism-based; set-up: dose 2.5 mg/kg, route oral; conditions: in vivo
[19] = Apparent oral clearance in Sprague-Dawley rat at 1 mg/kg, iv measured during 1 to 24 hrs by LC-MS method; type: ADME, organism-based; set-up: dose 1 mg/kg, route oral; conditions: in vivo
[20] = tested on: Rattus norvegicus; test: Half life in Sprague-Dawley rat at 1 mg/kg, iv measured during 1 to 24 hrs by LC-MS method; type: ADME, organism-based; set-up: dose 1 mg/kg, route intravenous; conditions: in vivo
[21] = tested on: Rattus norvegicus; test: AUC (0 to infinity) in Sprague-Dawley rat at 2.5 mg/kg, po measured during 1 to 24 hrs by LC-MS method; type: ADME, organism-based, Plasma; set-up: dose 2.5 mg/kg, route oral, time infinity; conditions: in vivo
[22] = tested on: Rattus norvegicus; test: Tmax in Sprague-Dawley rat at 2.5 mg/kg, po measured during 1 to 24 hrs by LC-MS method; type: ADME, organism-based; set-up: dose 2.5 mg/kg, route oral; conditions: in vivo
[23] = Cmax in Sprague-Dawley rat at 2.5 mg/kg, po measured during 1 to 24 hrs by LC-MS method; type: ADME, organism-based; set-up: dose 2.5 mg/kg, route oral; conditions: in vivo
[24] = Volume of distribution in Sprague-Dawley rat at 1 mg/kg, iv measured during 1 to 24 hrs by LC-MS method; type: ADME, organism-based; set-up: dose 1 mg/kg, route intravenous; conditions: in vivo
[25] = Apparent oral clearance in Sprague-Dawley rat at 2.5 mg/kg, po measured during 1 to 24 hrs by LC-MS method; type: ADME, organism-based; set-up: dose 2.5 mg/kg, route oral; conditions: Sprague-Dawley, in vivo
[26] = tested on: Rattus norvegicus; test: Antinociceptive activity in orally dosed Sprague-Dawley rat model of carrageenan-induced foot paw hyperalgesia assessed as paw withdrawal latency; type: functional, organism-based
[27] = tested on: Rattus norvegicus; test: Antiarthritic activity in Lewis rat model of adjuvant-induced arthritis administrated by oral gavage once daily; type: functional
[28] = tested on: Rattus norvegicus; test: Antiinflammatory activity in orally dosed Sprague-Dawley rat model of carrageenan-induced foot paw edema assessed as reduction in edema by plethysmometry; type: functional, organism-based
[29] = tested on: Rattus norvegicus; test: AUC (0 to infinity) in Sprague-Dawley rat at 10 mg/kg, po measured during 1 to 24 hrs by LC-MS method; type: ADME, organism-based, Plasma; set-up: time infinity, dose 10 mg/kg, route oral; conditions: in vivo
[30] = molecular target: T1, Prostaglandin G/H synthase 2 (Homo sapiens, UniProt P35354); test: Inhibition of human recombinant COX2 pre-incubated for 15 mins before fluorometric substrate addition by fluorescence based assay
T1 sequence (P35354 whole entry): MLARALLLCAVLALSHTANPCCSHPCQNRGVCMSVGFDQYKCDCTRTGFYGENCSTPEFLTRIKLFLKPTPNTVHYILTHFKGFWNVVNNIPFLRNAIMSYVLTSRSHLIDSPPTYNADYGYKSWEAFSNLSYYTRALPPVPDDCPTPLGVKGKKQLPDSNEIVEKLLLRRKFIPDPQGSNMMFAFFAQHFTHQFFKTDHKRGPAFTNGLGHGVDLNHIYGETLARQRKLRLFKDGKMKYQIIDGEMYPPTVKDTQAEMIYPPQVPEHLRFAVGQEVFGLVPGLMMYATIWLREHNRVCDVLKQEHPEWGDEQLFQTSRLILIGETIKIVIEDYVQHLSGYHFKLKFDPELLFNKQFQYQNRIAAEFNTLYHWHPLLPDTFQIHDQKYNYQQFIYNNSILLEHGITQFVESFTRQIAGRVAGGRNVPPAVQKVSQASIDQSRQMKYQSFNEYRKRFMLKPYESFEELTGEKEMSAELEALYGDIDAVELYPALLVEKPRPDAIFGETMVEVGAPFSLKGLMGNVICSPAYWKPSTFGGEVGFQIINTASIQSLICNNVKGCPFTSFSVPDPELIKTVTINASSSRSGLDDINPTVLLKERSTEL

[31] = tested on: Rattus norvegicus; test: as §1; type: ADME, organism-based, Plasma; set-up: time infinity, dose 5 mg/kg, route intravenous; conditions: in vivo
[32] = (§2) Oral bioavailability in Sprague-Dawley rat at 10 mg/kg measured during 1 to 24 hrs by LC-MS method; type: ADME, organism-based; conditions: Sprague-Dawley, in vivo
[33] = (§3) Apparent oral clearance in Sprague-Dawley rat at 10 mg/kg, po measured during 1 to 24 hrs by LC-MS method; type: ADME, organism-based; set-up: dose 10 mg/kg, route oral; conditions: Sprague-Dawley, in vivo
[34] = tested on: Rattus norvegicus; test: Volume of distribution in Sprague-Dawley rat at 10 mg/kg, po measured during 1 to 24 hrs by LC-MS method; type: ADME, organism-based; set-up: dose 10 mg/kg, route oral; conditions: in vivo
[35] = tested on: Rattus norvegicus; test: Tmax in Sprague-Dawley rat at 10 mg/kg, po measured during 1 to 24 hrs by LC-MS method; type: ADME, organism-based; set-up: dose 10 mg/kg, route oral; conditions: in vivo
[36] = tested on: Rattus norvegicus; test: Half life in Sprague-Dawley rat at 10 mg/kg, po measured during 1 to 24 hrs by LC-MS method; type: ADME, organism-based; set-up: dose 10 mg/kg, route oral; conditions: in vivo
[37] = tested on: Rattus norvegicus; test: as §2; type: ADME, organism-based; conditions: in vivo
[38] = tested on: Rattus norvegicus; test: as §3; type: ADME, organism-based; set-up: dose 10 mg/kg, route oral; conditions: in vivo
[39] = Cmax in Sprague-Dawley rat at 10 mg/kg, po measured during 1 to 24 hrs by LC-MS method; type: ADME, organism-based; set-up: dose 10 mg/kg, route oral; conditions: in vivo

## CCc1cc(OC(F)(F)F)cc2c1OC(C(F)(F)F)C(C(=O)O)=C2 (stereo not given)
[1]
  Cmax: 29500 ng/mL
[2]
  CL/F: 0.633 mL/min/kg
[3]
  Tmax: 1.62 h
[4]
  AUC(0-inf): 131000 ng·h/mL
[5]
  Cmax: 37200 ng/mL
[6]
  IC50: > 100 µM
[7]
  t1/2: 5.446 h
[8]
  CL/F: 0.817 mL/min/kg
[9]
  Vd: 0.301 L/kg
[10]
  half-life: 9.54 h
[11]
  AUC(0-inf): 511000 ng·h/mL
[12]
  Vd: 0.678 L/kg
[13]
  bioavailability: 78.6%

## [2H]C([2H])([2H])c1cc(Cl)cc2c1O[C@H](C(F)(F)F)C(C(=O)O)=C2
[6]
  IC50: > 100 µM

## Cc1cc(Cl)cc2c1OC(C(F)(F)F)C(C(=O)O)=C2 (stereo not given)
[14]
  AUC: 1440.446 ng·h/mL
[15]
  EC50: 0.61 mg/kg
[16]
  bioavailability: 128%
[17]
  Cmax: 4130 ng/mL
[18]
  t1/2: 1.75 h
[19]
  CL/F: 11.8 mL/min/kg
[20]
  t1/2: 0.59 h
[21]
  AUC: 4627.624 ng·h/mL
[22]
  Tmax: 0.25 h
[23]
  Cmax: 2720 ng/mL
[24]
  Vd: 0.59 L/kg
[25]
  CL/F: 9.12 mL/min/kg

## Cc1ccc(-c2cc(C(F)(F)F)nn2-c2ccc(S(N)(=O)=O)cc2)cc1 [CELECOXIB]
[26]
  EC50: 5 mg/kg
[27]
  ED50: 1.57 mg/kg
[15]
  EC50: 0.69 mg/kg
[28]
  EC50: 2.81 mg/kg

## [2H]C([2H])([2H])c1cc(Br)cc2c1OC(C(F)(F)F)C(C(=O)O)=C2 (stereo not given)
[26]
  EC50: 2.19 mg/kg
[27]
  ED50: 0.42 mg/kg
[29]
  AUC: 142686.966 ng·h/mL
[2]
  CL/F: 1.28 mL/min/kg
[30]
  IC50: 0.039 µM
[15]
  EC50: 0.27 mg/kg
[28]
  EC50: 3 mg/kg
[31]
  AUC: 66436.832 ng·h/mL
[5]
  Cmax: 39000 ng/mL
[7]
  t1/2: 4.186 h
[32]
  bioavailability: 107%
[33]
  CL/F: 1.2 mL/min/kg
[9]
  Vd: 0.461 L/kg
[34]
  Vd: 0.53 L/kg

## Cc1cc2c(c(C)c1Cl)C=C(C(=O)O)C(C(F)(F)F)O2 (stereo not given)
[29]
  AUC: 12846.927 ng·h/mL
[35]
  Tmax: 0.438 h
[14]
  AUC: 4898.988 ng·h/mL
[15]
  EC50: 0.77 mg/kg
[6]
  IC50: > 100 µM
[17]
  Cmax: 5040 ng/mL
[19]
  CL/F: 3.45 mL/min/kg
[36]
  t1/2: 3.09 h
[20]
  t1/2: 1.5 h
[37]
  F: 78.5%
[38]
  CL/F: 3.25 mL/min/kg
[24]
  Vd: 0.45 L/kg
[39]
  Cmax: 6590 ng/mL
[34]
  Vd: 1.25 L/kg

## [2H]C([2H])([2H])c1cc2c(c(C([2H])([2H])[2H])c1)OC(C(F)(F)F)C(C(=O)O)=C2 (stereo not given)
[6]
  IC50: > 100 µM

## Cc1cc(Cl)c2c(c1)C=C(C(=O)O)C(C(F)(F)F)O2 (stereo not given)
[6]
  IC50: > 100 µM
